The record followed here is ChEMBL document CHEMBL1133957, “A selective inhibitor of Escherichia coli prephenate dehydratase” (Bioorg Med Chem Lett, 2001).

Activity calls are given as the source filed them. The rule behind the calls is not given here. A value given as a limit tells only on which side of the number the result lay.

In general, IC50 refers to the concentration needed to halve the response being measured. A high value points to weaker potency. Broadly, the inhibition is the share of the control response that was lost under treatment.

The nature of assay [1]: Inhibitory activity against chorismate mutase. More on the design: species or system Escherichia coli.
Assay [2] can be described thus: Inhibitory activity against (PDT22) Prephenate dehydratase. The arrangement: species or system Escherichia coli.
For assay [3], the system named is Escherichia coli. The experiment in a line: Inhibitory activity against (PDT22) Prephenate dehydratase at 500 uM; No inhibition.
In assay [4] the test system is Escherichia coli. In words: Inhibitory activity against chorismate mutase; No inhibition.
Assay [5] deals with Escherichia coli. The experiment in a line: Inhibitory activity against chorismate mutase at 500 uM; No inhibition.
The test system of assay [6] is Escherichia coli. In words: Inhibitory activity against (PDT22) Prephenate dehydratase at 500 uM.
Assay [7] in a line: Inhibitory activity against Chorismate mutase. More on the design: species or system Escherichia coli.

For `O=C(O)c1ccccc1-c1c(C(=O)O)cccc1[N+](=O)[O-]`, the figures for the IC50 in assay [1] and in assay [2] were 0.28 mM and 1.9 mM, respectively.

Consider `Cc1cccc(C(=O)O)c1-c1c(C(=O)O)cccc1[N+](=O)[O-]`, for which the figures for the IC50 in assay [1] and in assay [2] were 0.73 mM and 1.3 mM, respectively.

For the molecule `COc1cccc(C(=O)O)c1-c1ccccc1C(=O)O`, the IC50 in assay [2] turned out to be 4 mM. In other words, the millimolar range.

`O=C(O)c1ccc([N+](=O)[O-])c(-c2c(C(=O)O)cccc2[N+](=O)[O-])c1`: the IC50 in assay [1] is 1.35 mM; in assay [2] it was 0.55 mM.

In the case of `CC(=O)Nc1cccc(C(=O)O)c1-c1c(NC(C)=O)cccc1C(=O)O`, the inhibition result with Escherichia coli [3] and with Escherichia coli [4] was “inactive” in each case.

For `O=C(O)c1ccccc1-c1ccccc1C(=O)O`, the inhibition result with Escherichia coli [3] and in the assay with Escherichia coli [5] was “inactive” throughout.

For `O=C(O)c1ccccc1-c1c(O)cccc1C(=O)O`, the IC50 in assay [1] is 1 mM; in assay [2], 2.9 mM.

Turning to `COc1cccc(C(=O)O)c1-c1c(C(=O)O)cccc1[N+](=O)[O-]`, the figures for the IC50 in assay [1] and in assay [2] were 0.8 mM and 3 mM, respectively.

Turning to `O=C(O)c1cccc(C(=O)O)c1-c1c(C(=O)O)cccc1[N+](=O)[O-]`, the figures for the IC50 in assay [1] and in assay [2] were 0.45 mM and 1.7 mM, respectively.

As to `O=C(O)c1cccc([N+](=O)[O-])c1-c1cccc(F)c1C(=O)O`, the results for the IC50 in assay [1] and in assay [2] were 0.6 mM and 2.25 mM, respectively.

`O=C(O)c1cc(O)c(O)cc1-c1c(C(=O)O)cccc1[N+](=O)[O-]` came in with an IC50 in assay [1] of 1 mM. The inhibition in the assay with Escherichia coli [6] is below 25%.

On to `O=C(O)c1cc(C(=O)O)c(-c2ccccc2[N+](=O)[O-])c(C(=O)O)c1`, for which the IC50 in assay [7] worked out at 3 mM; in assay [2], 1.85 mM.

Consider `O=C(O)c1cc(O)ccc1-c1c(C(=O)O)cccc1[N+](=O)[O-]`, for which the values for the IC50 in assay [1] and in assay [2] were 0.35 mM and 0.95 mM, respectively.

In the case of `O=C(O)c1cccc([N+](=O)[O-])c1-c1c(C(=O)O)cccc1[N+](=O)[O-]`, the IC50 came to 0.05 mM in assay [1] and 0.6 mM in assay [2].

Regarding `O=C(O)c1ccc([N+](=O)[O-])cc1-c1c(C(=O)O)cccc1[N+](=O)[O-]`, the results for the IC50 in assay [1] and in assay [2] were 1.15 mM and 0.75 mM, respectively.
